Measured values reported in ChEMBL document CHEMBL1152994, “Plasmid-mediated carbapenem-hydrolyzing beta-lactamase KPC-2 in Klebsiella pneumoniae isolate from Greece” (2008).
≈ marks a conversion by molar mass, not a printed value.

What was measured:
[1] = test system: Klebsiella pneumoniae; experiment: Antibacterial activity against Klebsiella pneumoniae Greece producing KPC-2 beta-lactamase by E test method; assay type: functional
[2] = test system: Escherichia coli; experiment: Antibacterial activity against Escherichia coli J53 expressing Klebsiella pneumoniae Greece blaKPC-2 gene by E test method; assay type: functional
[3] = test system: Escherichia coli; experiment: Antibacterial activity against Escherichia coli J53 by E test method; assay type: functional
[4] = target: T1, Class A carbapenemase (Klebsiella pneumoniae) (UniProt A9LM97); experiment: Activity at Klebsiella pneumoniae Greece Carbapenem-Hydrolyzing-Lactamase KPC-2 assessed per mg of total protein by spectrophotometrically
T1 sequence (whole entry): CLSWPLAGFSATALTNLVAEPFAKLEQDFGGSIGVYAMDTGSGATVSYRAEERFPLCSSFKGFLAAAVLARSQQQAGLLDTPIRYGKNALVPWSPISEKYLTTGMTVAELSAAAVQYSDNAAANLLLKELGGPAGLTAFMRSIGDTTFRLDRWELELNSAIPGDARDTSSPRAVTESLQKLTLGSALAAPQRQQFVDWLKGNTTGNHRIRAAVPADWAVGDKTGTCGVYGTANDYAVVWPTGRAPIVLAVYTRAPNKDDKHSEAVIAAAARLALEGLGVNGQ

| Molecule | MIC [1] | MIC [2] | MIC [3] | Activity [4] |
| --- | --- | --- | --- | --- |
| CC1(C)S[C@@H]2[C@H](NC(=O)[C@H](N)c3ccc(O)cc3)C(=O)N2[C@H]1C(=O)O [AMOXICILLIN] | > 256 µg/mL | > 256 µg/mL | 4 µg/mL (≈ 10.9 µM) | – |
| C[C@H]1[C@H](NC(=O)/C(=N\OC(C)(C)C(=O)O)c2csc(N)n2)C(=O)N1S(=O)(=O)O [AZTREONAM] | > 256 µg/mL | 16 µg/mL (≈ 36.7 µM) | – | – |
| CO/N=C(\C(=O)N[C@@H]1C(=O)N2C(C(=O)[O-])=C(C[N+]3(C)CCCC3)CS[C@H]12)c1csc(N)n1 [CEFEPIME] | > 256 µg/mL | 1.5 µg/mL (≈ 3.12 µM) | 0.03 µg/mL (≈ 0.0624 µM) | – |
| CO/N=C(\C(=O)N[C@@H]1C(=O)N2C(C(=O)O)=C(COC(C)=O)CS[C@H]12)c1csc(N)n1 [CEFOTAXIME] | > 32 µg/mL | 4 µg/mL (≈ 8.78 µM) | 0.06 µg/mL (≈ 0.132 µM) | – |
| CO[C@@]1(NC(=O)Cc2cccs2)C(=O)N2C(C(=O)O)=C(COC(N)=O)CS[C@@H]21 [CEFOXITIN] | 64 µg/mL (≈ 150 µM) | 4 µg/mL (≈ 9.36 µM) | 2 µg/mL (≈ 4.68 µM) | – |
| CC(C)(O/N=C(\C(=O)N[C@@H]1C(=O)N2C(C(=O)[O-])=C(C[n+]3ccccc3)CS[C@H]12)c1csc(N)n1)C(=O)O [CEFTAZIDIME] | > 256 µg/mL | 4 µg/mL (≈ 7.32 µM) | 0.06 µg/mL (≈ 0.11 µM) | – |
| CC(=O)OCC1=C(C(=O)O)N2C(=O)[C@@H](NC(=O)Cc3cccs3)[C@H]2SC1 [CEPHALOTHIN] | > 256 µg/mL | > 256 µg/mL | 1 µg/mL (≈ 2.52 µM) | – |
| C[C@@H](O)[C@H]1C(=O)N2C(C(=O)O)=C(S[C@@H]3CN[C@H](C(=O)Nc4cccc(C(=O)O)c4)C3)[C@H](C)[C@H]12 [ERTAPENEM] | 12 µg/mL (≈ 25.2 µM) | 0.38 µg/mL (≈ 0.799 µM) | 0.03 µg/mL (≈ 0.0631 µM) | 0.05 µmol |
| C[C@@H](O)[C@H]1C(=O)N2C(C(=O)O)=C(SCCNC=N)C[C@H]12 [IMIPENEM ANHYDROUS] | 12 µg/mL (≈ 40.1 µM) | 1.5 µg/mL (≈ 5.01 µM) | – | 0.2 µmol |
| C[C@@H](O)[C@H]1C(=O)N2C(C(=O)O)=C(S[C@@H]3CN[C@H](C(=O)N(C)C)C3)[C@H](C)[C@H]12 [MEROPENEM] | 6 µg/mL (≈ 15.6 µM) | 0.38 µg/mL (≈ 0.991 µM) | 0.03 µg/mL (≈ 0.0782 µM) | 0.06 µmol |
| CCN1CCN(C(=O)N[C@@H](C(=O)N[C@@H]2C(=O)N3[C@@H]2SC(C)(C)[C@@H]3C(=O)O)c2ccccc2)C(=O)C1=O [PIPERACILLIN] | > 256 µg/mL | 128 µg/mL (≈ 247 µM) | 1 µg/mL (≈ 1.93 µM) | – |
| CC1(C)S[C@@H]2[C@H](NC(=O)[C@H](C(=O)O)c3ccsc3)C(=O)N2[C@H]1C(=O)O [TICARCILLIN] | > 256 µg/mL | > 256 µg/mL | 2 µg/mL (≈ 5.2 µM) | – |
| CN(C)c1cc(NC(=O)CNC(C)(C)C)c(O)c2c1C[C@H]1C[C@H]3[C@H](N(C)C)C(O)=C(C(N)=O)C(=O)[C@@]3(O)C(O)=C1C2=O [TIGECYCLINE] | 3 µg/mL (≈ 5.12 µM) | 0.5 µg/mL (≈ 0.854 µM) | 0.5 µg/mL (≈ 0.854 µM) | – |
| COLISTIN | 128 µg/mL | 0.38 µg/mL | 0.38 µg/mL | – |
| GENTAMICIN | 1.5 µg/mL | 0.064 µg/mL | 0.064 µg/mL | – |
